Patent publication US20210045385A1, “PYRIDAZINONE-SUBSTITUTED KETOXIMES AS HERBICIDES” (FMC Corporation, priority 2018, published 2021)

Tests used:
Assay type in all cases: in vivo
[1] = test system: ragweed (common ragweed, Ambrosia elatior); assay: Test A preemergence, visual plant response rating; conditions: for Ragweed plant response rating: 125 g ai/ha, preemergence, 0 to 100 scale, 0 no effect, 100 complete control; for Ragweed plant response rating (0 to 100 scale): 500 g ai/ha Preemergence, approx. 10 days
Outline: (§1)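 Ratings use a 0–100 visual scale (100 = complete control) against untreated controls, scored about 10 days after greenhouse treatment. Test chemicals were formulated in surfactant-containing non-phytotoxic solvent and applied either as soil spray after planting (preemergence) or onto one- to two-leaf, 2–10 cm plants (postemergence).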

kochia (Kochia scoparia) [2] = assay: Test A preemergence, visual plant response rating; conditions: for Kochia plant response rating: 125 g ai/ha, preemergence, 0 to 100 scale, 0 no effect, 100 complete control; for Kochia plant response rating (0 to 100 scale): 500 g ai/ha Preemergence, approx. 10 days
Outline: as §1

[3] = test system: foxtail, giant (giant foxtail, Setaria faberii); assay: Test A preemergence, visual plant response rating; conditions: for Foxtail, Giant plant response rating: 125 g ai/ha, preemergence, 0 to 100 scale, 0 no effect, 100 complete control; for Foxtail, Giant plant response rating (0 to 100 scale): 500 g ai/ha Preemergence, approx. 10 days
Outline: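 Greenhouse pot test in loam–sand soil mix: compound in a surfactant-containing non-phytotoxic solvent applied preemergence (directed soil spray) or postemergence (one- to two-leaf plants, 2–10 cm). Injury scored visually after ~10 days, 0–100.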

[4] = test system: barnyardgrass (Echinochloa crus-galli); assay: Test A preemergence, visual plant response rating; conditions: for Barnyardgrass plant response rating: 125 g ai/ha, preemergence, 0 to 100 scale, 0 no effect, 100 complete control; for Barnyardgrass plant response rating (0 to 100 scale): 500 g ai/ha Preemergence, approx. 10 days
Outline: as §1

[5] = test system: Italian ryegrass (Lolium multiflorum); assay: Test A preemergence, visual plant response rating; conditions: for Ryegrass, Italian plant response rating: 125 g ai/ha, preemergence, 0 to 100 scale, 0 no effect, 100 complete control; for Ryegrass, Italian plant response rating (0 to 100 scale): 500 g ai/ha Preemergence, approx. 10 days
Outline: as §1

[6] = test system: pigweed (Amaranthus retroflexus); assay: Test A preemergence, visual plant response rating; conditions: for Pigweed plant response rating: 125 g ai/ha, preemergence, 0 to 100 scale, 0 no effect, 100 complete control; for Pigweed plant response rating (0 to 100 scale): 500 g ai/ha Preemergence, approx. 10 days
Outline: as §1

[7] = test system: sedge, umbrella (small-flower umbrella sedge, Cyperus difformis); assay: Test B flooded paddy test, visual plant response rating; conditions: 250 g ai/ha, Flood, applied to paddy water, 2-leaf stage, evaluated after 13 to 15 days
Outline: (§2)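 Flooded-pot treatment: water 3 cm over the soil, chemical delivered into that water, depth unchanged for the duration. Assessed by eye versus controls following 13–15 greenhouse days; plants were at 2 leaves when dosed.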

rice (Oryza sativa) = assay: as above; conditions: 250 g ai/ha, Flood, applied to paddy water, 2-leaf stage, evaluated after 13 to 15 days
Outline: as §2

[8] = test system: barnyardgrass (Echinochloa crus-galli); assay: as above; conditions: 250 g ai/ha, Flood, applied to paddy water, 2-leaf stage, evaluated after 13 to 15 days
Outline: as §2

[9] = test system: ducksalad (Heteranhera limosa); assay: as above; conditions: 250 g ai/ha, Flood, applied to paddy water, 2-leaf stage, evaluated after 13 to 15 days
Outline: as §2

[10] = test system: ragweed (common ragweed, Ambrosia elatior); assay: Test A postemergence, visual plant response rating; conditions: for Ragweed plant response rating (0 to 100 scale): 500 g ai/ha, postemergence, 0 is no effect, 100 is complete control; for Ragweed plant response rating: Postemergence, 125 g ai/ha, 0 to 100 scale (0 no effect, 100 complete control)
Outline: as §1

[11] = test system: galium (catchweed bedstraw, Galium aparine); assay: Test A postemergence, visual plant response rating; conditions: for Galium plant response rating (0 to 100 scale): 500 g ai/ha, postemergence, 0 is no effect, 100 is complete control; for Galium plant response rating: Postemergence, 125 g ai/ha, 0 to 100 scale (0 no effect, 100 complete control)
Outline: as §1

[12] = test system: blackgrass (Alopecurus myosuroides); assay: Test A postemergence, visual plant response rating; conditions: for Blackgrass plant response rating (0 to 100 scale): 500 g ai/ha, postemergence, 0 is no effect, 100 is complete control; for Blackgrass plant response rating: Postemergence, 125 g ai/ha, 0 to 100 scale (0 no effect, 100 complete control)
Outline: as §1

corn (Zea mays) = assay: Test A postemergence, visual plant response rating; conditions: for Corn plant response rating (0 to 100 scale): 500 g ai/ha, postemergence, 0 is no effect, 100 is complete control; for Corn plant response rating: Postemergence, 125 g ai/ha, 0 to 100 scale (0 no effect, 100 complete control)
Outline: as §1

kochia (Kochia scoparia) [13] = assay: Test A postemergence, visual plant response rating; conditions: for Kochia plant response rating (0 to 100 scale): 500 g ai/ha, postemergence, 0 is no effect, 100 is complete control; for Kochia plant response rating: Postemergence, 125 g ai/ha, 0 to 100 scale (0 no effect, 100 complete control)
Outline: as §1

[14] = test system: foxtail, giant (giant foxtail, Setaria faberii); assay: Test A postemergence, visual plant response rating; conditions: for Foxtail, Giant plant response rating (0 to 100 scale): 500 g ai/ha, postemergence, 0 is no effect, 100 is complete control; for Foxtail, Giant plant response rating: Postemergence, 125 g ai/ha, 0 to 100 scale (0 no effect, 100 complete control)
Outline: as §1

[15] = test system: wheat (Triticum aestivum); assay: Test A postemergence, visual plant response rating; conditions: for Wheat plant response rating (0 to 100 scale): 500 g ai/ha, postemergence, 0 is no effect, 100 is complete control; for Wheat plant response rating: Postemergence, 125 g ai/ha, 0 to 100 scale (0 no effect, 100 complete control)
Outline: as §1

[16] = test system: barnyardgrass (Echinochloa crus-galli); assay: Test A postemergence, visual plant response rating; conditions: for Barnyardgrass plant response rating (0 to 100 scale): 500 g ai/ha, postemergence, 0 is no effect, 100 is complete control; for Barnyardgrass plant response rating: Postemergence, 125 g ai/ha, 0 to 100 scale (0 no effect, 100 complete control)
Outline: as §1

[17] = test system: Italian ryegrass (Lolium multiflorum); assay: Test A postemergence, visual plant response rating; conditions: for Ryegrass, Italian plant response rating (0 to 100 scale): 500 g ai/ha, postemergence, 0 is no effect, 100 is complete control; for Ryegrass, Italian plant response rating: Postemergence, 125 g ai/ha, 0 to 100 scale (0 no effect, 100 complete control)
Outline: as §1

[18] = test system: pigweed (Amaranthus retroflexus); assay: Test A postemergence, visual plant response rating; conditions: for Pigweed plant response rating (0 to 100 scale): 500 g ai/ha, postemergence, 0 is no effect, 100 is complete control; for Pigweed plant response rating: Postemergence, 125 g ai/ha, 0 to 100 scale (0 no effect, 100 complete control)
Outline: as §1

SMILES	Ragweed plant response rating [1]	Ragweed plant response rating (0 to 100 scale) [1]	Kochia plant response rating (kochia (Kochia scoparia) [2])	Kochia plant response rating (0 to 100 scale) (kochia (Kochia scoparia) [2])	Foxtail, Giant plant response rating [3]	Foxtail, Giant plant response rating (0 to 100 scale) [3]	Barnyardgrass plant response rating [4]	Barnyardgrass plant response rating (0 to 100 scale) [4]	Ryegrass, Italian plant response rating [5]	Ryegrass, Italian plant response rating (0 to 100 scale) [5]	Pigweed plant response rating [6]	Pigweed plant response rating (0 to 100 scale) [6]	Plant response rating, Sedge, Umbrella (0 to 100 scale, 0 is no effect, 100 is complete control) [7]	Plant response rating, Rice (0 to 100 scale, 0 is no effect, 100 is complete control) (rice (Oryza sativa))	Plant response rating, Barnyardgrass (0 to 100 scale, 0 is no effect, 100 is complete control) [8]	Plant response rating, Ducksalad (0 to 100 scale, 0 is no effect, 100 is complete control) [9]	Ragweed plant response rating (0 to 100 scale) [10]	Ragweed plant response rating [10]	Galium plant response rating (0 to 100 scale) [11]	Galium plant response rating [11]	further results
CON=C(c1c(O)c(C)nn(C)c1=O)c1cccc2cc(Br)ccc12 [Compound 100]	100	100	10	60	60	100	50	80	50	100	90	100	0	0	0	0	100	90	90	90	Blackgrass plant response rating (0 to 100 scale) [12]: 90; Blackgrass plant response rating [12]: 90; Corn plant response rating (0 to 100 scale) (corn (Zea mays)): 40; Corn plant response rating (corn (Zea mays)): 10; Kochia plant response rating (0 to 100 scale) (kochia (Kochia scoparia) [13]): 70; Kochia plant response rating (kochia (Kochia scoparia) [13]): 70; Foxtail, Giant plant response rating (0 to 100 scale) [14]: 80; Foxtail, Giant plant response rating [14]: 70; Wheat plant response rating (0 to 100 scale) [15]: 50; Wheat plant response rating [15]: 0; Barnyardgrass plant response rating (0 to 100 scale) [16]: 70; Barnyardgrass plant response rating [16]: 30; Ryegrass, Italian plant response rating (0 to 100 scale) [17]: 90; Ryegrass, Italian plant response rating [17]: 80; Pigweed plant response rating (0 to 100 scale) [18]: 90; Pigweed plant response rating [18]: 90
CO/N=C(\c1cccc(C#N)c1)c1c(O)c(C)nn(C)c1=O [Compound 74]	0	0	0	0	0	0	0	0	0	0	0	0	10	15	0	25	20	0	50	10	Blackgrass plant response rating (0 to 100 scale) [12]: 20; Blackgrass plant response rating [12]: 0; Corn plant response rating (0 to 100 scale) (corn (Zea mays)): 0; Corn plant response rating (corn (Zea mays)): 0; Kochia plant response rating (0 to 100 scale) (kochia (Kochia scoparia) [13]): 30; Kochia plant response rating (kochia (Kochia scoparia) [13]): 0; Foxtail, Giant plant response rating (0 to 100 scale) [14]: 0; Foxtail, Giant plant response rating [14]: 0; Wheat plant response rating (0 to 100 scale) [15]: 0; Wheat plant response rating [15]: 0; Barnyardgrass plant response rating (0 to 100 scale) [16]: 0; Barnyardgrass plant response rating [16]: 0; Ryegrass, Italian plant response rating (0 to 100 scale) [17]: 20; Ryegrass, Italian plant response rating [17]: 10; Pigweed plant response rating (0 to 100 scale) [18]: 30; Pigweed plant response rating [18]: 20
